Experimental data as given in PubChem BioAssay (NCI).
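48-hour exposure; five concentrations; linearly interpolated endpoints. The concentration for 50% growth inhibition is given as GI50. TGI: concentration producing complete growth inhibition.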

Experiments:
Experiment in all cases: NCI anticancer screen, dose series, 48 h
CAKI-1 renal = system: CAKI-1 renal
HCT-116 colon = system: HCT-116 colon
HT29 colon = system: HT29 colon
K-562 leukemia = system: K-562 leukemia
LOX IMVI melanoma = system: LOX IMVI melanoma
M14 melanoma = system: M14 melanoma
NCI-H23 lung = system: NCI-H23 lung
OVCAR-4 ovarian = system: OVCAR-4 ovarian
UACC-62 melanoma = system: UACC-62 melanoma
SK-MEL-5 melanoma = system: SK-MEL-5 melanoma

Compound	TGI (CAKI-1 renal)	TGI (HCT-116 colon)	TGI (HT29 colon)	TGI (K-562 leukemia)	TGI (LOX IMVI melanoma)	TGI (M14 melanoma)	TGI (NCI-H23 lung)	TGI (OVCAR-4 ovarian)	TGI (UACC-62 melanoma)	GI50 (CAKI-1 renal)	GI50 (HCT-116 colon)	GI50 (HT29 colon)	GI50 (K-562 leukemia)	GI50 (M14 melanoma)	GI50 (NCI-H23 lung)	GI50 (OVCAR-4 ovarian)	GI50 (SK-MEL-5 melanoma)	TGI (SK-MEL-5 melanoma)	GI50 (UACC-62 melanoma)	GI50 (LOX IMVI melanoma)
O=C(COc1ccccc1)NS(=O)(=O)c1ccccc1	> 100 µM	> 100 µM	> 100 µM	> 100 µM	> 100 µM	> 100 µM	> 100 µM	> 100 µM	> 100 µM	–	–	–	–	–	–	–	–	–	–	–
COC1=CC(c2ccc[nH]2)=N/C1=C\c1ccc[nH]1	3.26 µM	–	3.93 µM	> 32.7 µM	–	0.629 µM	19.1 µM	13.3 µM	0.516 µM	0.151 µM	0.0238 µM	< 0.013 µM	0.273 µM	0.0562 µM	2.1 µM	0.316 µM	0.064 µM	0.261 µM	0.219 µM	–
O=C(/C=C\c1ccc(Cl)cc1Cl)c1cccs1	80.4 µM	23.5 µM	64.5 µM	> 100 µM	–	35.1 µM	44 µM	–	28.3 µM	–	–	–	–	–	–	–	–	29.9 µM	–	–
COc1cc(-c2cc(-c3nc4ccc(Cl)cc4[nH]3)[nH]n2)cc(OC)c1OC	11.1 µM	12.2 µM	16.4 µM	> 100 µM	–	9.96 µM	8.89 µM	4.37 µM	4.95 µM	2.8 µM	3.45 µM	4.14 µM	3.04 µM	2.92 µM	2.73 µM	1.38 µM	1.62 µM	3.48 µM	1.97 µM	–
Nc1ccn(C2CC(CO)C(O)C2O)c(=O)n1 (stereo unspecified)	> 57.7 µM	> 57.7 µM	–	> 57.7 µM	–	> 57.7 µM	–	> 57.7 µM	> 57.7 µM	–	–	–	–	–	–	–	–	> 57.7 µM	–	–
CC(C)(C)C(=O)C1CC(=O)c2ccccc2C1=O (stereo unspecified)	84.7 µM	46.2 µM	–	> 100 µM	> 100 µM	> 100 µM	45.3 µM	> 100 µM	> 100 µM	–	–	–	–	–	–	–	–	72.8 µM	–	–
Cc1ccccc1CN1CC=c2ccccc2=N1	> 100 µM	–	> 100 µM	> 100 µM	> 100 µM	> 100 µM	> 100 µM	> 100 µM	> 100 µM	–	–	–	–	–	–	–	–	> 100 µM	–	–
COc1ccc2nc3ccccc3c(NCCCCCCN(C)CCCl)c2c1	3.19 µM	1.22 µM	2.38 µM	–	0.515 µM	2.3 µM	1.04 µM	3.03 µM	1.61 µM	–	–	–	–	–	–	–	–	2.16 µM	–	–
CC(C)OP(=O)(OC(C)C)C(=Nc1ccccc1)NNc1ccc([N+](=O)[O-])cc1	> 100 µM	31.2 µM	–	> 100 µM	> 100 µM	41.4 µM	> 100 µM	> 100 µM	29.1 µM	–	–	–	–	–	–	–	–	27.1 µM	–	–
COC(=O)C(Cl)=C1CC1	32.6 µM	–	> 100 µM	60.5 µM	59.6 µM	30.5 µM	> 100 µM	> 100 µM	> 100 µM	–	–	–	–	–	–	–	–	84.9 µM	–	–
OCC12C3C4C1C1C2C3C41CO (stereo unspecified)	> 100 µM	–	> 100 µM	> 100 µM	> 100 µM	> 100 µM	> 100 µM	> 100 µM	> 100 µM	–	–	–	–	–	–	–	–	> 100 µM	–	–
CCC(C)C(NC(=O)C1CCCN1C(=O)C(NC(=O)C(C)N)C(C)C)C(N)=O (stereo unspecified)	> 100 µM	> 100 µM	> 100 µM	> 100 µM	> 100 µM	> 100 µM	–	> 100 µM	> 100 µM	> 100 µM	> 100 µM	> 100 µM	> 100 µM	> 100 µM	–	> 100 µM	> 100 µM	> 100 µM	> 100 µM	> 100 µM
COc1ccc(C2=NN(C(C)=O)C(c3cn(-c4ccccc4)nc3-c3ccc(Cl)cc3)C2)cc1 (stereo unspecified)	> 100 µM	> 100 µM	–	> 100 µM	> 100 µM	–	> 100 µM	–	> 100 µM	> 100 µM	> 100 µM	–	> 100 µM	–	> 100 µM	–	> 100 µM	> 100 µM	> 100 µM	> 100 µM
COc1cc2nc(Nc3cccc(F)c3)nc(Nc3cc(C)[nH]n3)c2cc1OC	3.19 µM	–	4.93 µM	4.94 µM	3.11 µM	3.22 µM	3.27 µM	3.49 µM	3.66 µM	1.76 µM	–	1.99 µM	1.36 µM	1.64 µM	1.69 µM	1.68 µM	1.44 µM	2.84 µM	1.85 µM	1.72 µM
O=c1c2ccccc2c2nc3ccccc3nc2n1C1CCCCC1	> 100 µM	> 100 µM	> 100 µM	> 100 µM	–	–	> 100 µM	> 100 µM	> 100 µM	–	–	–	–	–	–	–	–	> 100 µM	–	–
Cc1ccc(C)c(-c2csc(Nc3ccc(C)c(C)c3)n2)c1	> 100 µM	> 100 µM	> 100 µM	> 100 µM	> 100 µM	–	> 100 µM	> 100 µM	> 100 µM	> 100 µM	> 100 µM	> 100 µM	> 100 µM	–	65.7 µM	48.3 µM	> 100 µM	> 100 µM	> 100 µM	> 100 µM
Cc1cc(Cl)ccc1N=C1NC(=O)C(CC(=O)Nc2ccc(Cl)cc2Cl)S1 (stereo unspecified)	> 100 µM	–	> 100 µM	> 100 µM	> 100 µM	> 100 µM	> 100 µM	> 100 µM	> 100 µM	–	–	–	–	–	–	–	–	> 100 µM	–	–
COc1ccc2c(c1)CCC1C2CC[C@]2(C)/C(=N/OC(=O)Cc3ccccc3)CCC12 (stereo partly specified)	30.9 µM	26.2 µM	> 100 µM	–	37.2 µM	32.9 µM	32.7 µM	48.5 µM	30.9 µM	16 µM	13.4 µM	22.6 µM	–	16.8 µM	16.2 µM	18.4 µM	12.5 µM	29.5 µM	15.3 µM	18.5 µM
